Reference: patent EP4818189A1, “NITROGEN-CONTAINING HETEROCYCLIC COMPOUND, AND PREPARATION METHOD AND USE THEREFOR” (Chengdu Di'ao Pharmaceutical Group Co., Ltd., priority 2023, dated 2025)
Where a SMILES comes first, the peptide text is derived from it. [ ]: non-standard residue; d: D form. The star is where a group is joined. Aze = O=C(O)[C@@H]1CCN1; dAze = O=C(O)[C@H]1CCN1; Bz = O=C(c1ccccc1)*

How the values were obtained:
[1] = Plasma stability determination; assay type: in vitro ADME; conditions: mouse
Description: Mouse plasma (purchased from IPHASE, Batch No. 23B007) was thawed in a 37°C water bath, centrifuged to remove an upper clot, and the pH value was recorded as 7-8. An appropriate volume of stock solution of test compound in acetonitrile (at a concentration of 10 mM) was diluted with acetonitrile to 1 mM, so as to serve as a test drug solution. An appropriate volume of test drug solution was added to a corresponding volume of plasma and mixed uniformly, such that the concentration of the test compound in the incubation system was 5 µM, and the content of the organic solvent acetonitrile was 0.5%. 50 µL of mixed plasma was transferred into a 96-well plate (N=2), incubated at 37°C in a water bath for a designated time, and then added with 300 µL of internal standard-containing methanol solution to terminate the reaction. The reaction mixture was vortexed and centrifuged, and the supernatant was subjected to LC-MS/MS analysis. Propantheline and ZZL-7 were used as positive controls, and processed and tested under the same conditions as the test compound. A curve was plotted with the remaining percentage of the compound against incubation time to obtain a k value, and the half-life of each compound was calculated.

[2] = Mouse pharmacokinetic detection; assay type: in vivo; conditions: CD1 mice
Description: The detection was carried out in 6-8-week-old CD1 mice (purchased from: Speifu (Beijing) Biotechnology Co., Ltd.). […] The concentration of the compound in a plasma sample was analyzed by LC-MS/MS. Pharmacokinetic calculation was carried out by using WinNonlin (Phoenix™, Version 8.3) or other similar software. The following pharmacokinetic parameters were calculated based on plasma concentration and time data: Oral administration: AUClast, bioavailability (F). Statistical calculation was carried out on the above parameter data. Table 3 Pharmacokinetic data of some compounds administered orally in mice

[3] = plasma, oral gavage 10 mg/kg vs intravenous 10 mg/kg
[4] = plasma, ZZL-7 administered at 100 mg/kg via PO

SMILES | half-life at 5 µM [1] | AUC(0-t) ([2]; plasma, oral gavage 10 mg/kg) | bioavailability [2, 3] | further results
COC(=O)[C@@H](NC(=O)[C@H]1CCN1C(=O)c1ccc(C(F)(F)F)cc1)C(C)C [A-2-24] | > 4.82 h | – | – | –
COC(=O)[C@@H](NC(=O)[C@H]1CCN1C(C)=O)C(C)C [A-2-7] (Ac-[dAze]-Val-OMe) | – | 3990 ng·h/mL | 83.9% | –
COC(=O)[C@@H](NC(=O)[C@@H]1CCN1C(=O)c1ccc(C(F)(F)F)cc1)C(C)C [A-2-25] | 3.24 h | – | – | –
COC(=O)[C@@H](NC(=O)[C@H](C)NC(C)=O)C(C)C [ZZL-7, acetyl-L-alanyl-L-valine methyl ester, reference compound] (Ac-Ala-Val-OMe) | 0.421 h | – | – | AUC(0-t) [2, 4]: 138 ng·h/mL; bioavailability [2, 4]: 7.5%
COC(=O)[C@@H](NC(=O)[C@H]1CCN1C(=O)c1ccccc1)C(C)C [A-2-22] (Bz-[dAze]-Val-OMe) | > 4.82 h | – | – | –
COC(=O)[C@@H](NC(=O)[C@H]1CCN1C(=O)c1ccc(F)cc1)C(C)C [A-2-26] | 3.83 h | – | – | –
COC(=O)[C@@H](NC(=O)[C@@H]1CCN1C(=O)c1ccco1)C(C)C [A-2-31] | > 4.82 h | – | – | –
COC(=O)[C@@H](NC(=O)C1CCN1C(=O)C1CC1)C(C)C (some centres unmarked) [A-2-2] | – | 405 ng·h/mL | 21.5% | –
[2H]C([2H])([2H])C(=O)N1CC[C@H]1C(=O)N[C@H](C(=O)OC)C(C)C [A-2-8] | – | 3310 ng·h/mL | 88.5% | –
COC(=O)[C@@H](NC(=O)[C@@H]1CCN1C(C)=O)C(C)C [A-2-6] (Ac-[Aze]-Val-OMe) | – | 3340 ng·h/mL | 148% | –
CC(=O)N1CC[C@@H]1C(=O)N[C@@H](c1ccccn1)C(C)C [B-2-8] | > 4.82 h | 2550 ng·h/mL | 72.5% | –
[2H]C([2H])([2H])C(=O)N1CC[C@@H]1C(=O)N[C@H](C(=O)OC)C(C)C [A-2-9] | – | 5250 ng·h/mL | 84.7% | –
[2H]C([2H])([2H])OC(=O)[C@@H](NC(=O)C1CCN1C(C)=O)C(C)C (some centres unmarked) [A-2-4] | – | 3770 ng·h/mL | 80.2% | –
[2H]C([2H])([2H])C(=O)N1CC[C@H]1C(=O)N[C@@H](c1ncco1)C(C)C [B-2-42] | > 4.82 h | – | – | –
COC(=O)[C@@H](NC(=O)[C@@H]1CCN1C(=O)c1cccs1)C(C)C [A-2-33] | > 4.82 h | – | – | –
COC(=O)[C@@H](NC(=O)[C@@H]1CCN1C(=O)c1ccc(Cl)cc1)C(C)C [A-2-29] | 3.78 h | – | – | –
CC(=O)N1CC[C@@H]1C(=O)NC(c1cc2ccccc2[nH]1)C(C)C (some centres unmarked) [B-2-33] | > 4.82 h | 3360 ng·h/mL | 68.3% | –
CC(C)[N+](C)(CCOC(=O)C1c2ccccc2Oc2ccccc21)C(C)C [Propantheline, reference compound] | 0.417 h | – | – | –
COC(=O)[C@@H](NC(=O)[C@@H]1CCN1C(=O)c1ccccc1)C(C)C [A-2-23] (Bz-[Aze]-Val-OMe) | > 4.82 h | – | – | –
COC(=O)[C@@H](NC(=O)[C@@H]1CCN1C(=O)c1ccc(F)cc1)C(C)C [A-2-27] | 4.75 h | – | – | –
CC(=O)N1CCC1C(=O)N[C@H](c1ncc[nH]1)C(C)C (some centres unmarked) [B-2-1] | – | 1660 ng·h/mL | 44.9% | –
COC(=O)[C@@H](NC(=O)[C@@H]1CCN1C(=O)C1CC1)C(C)C [A-2-21] | > 4.82 h | – | – | –
COc1ccc(C(NC(=O)[C@H]2CCN2C(C)=O)C(C)C)cc1 (some centres unmarked) [B-2-24] | > 4.82 h | – | – | –
[2H]C([2H])([2H])C(=O)N1CC[C@H]1C(=O)N[C@H](c1ncco1)C(C)C [B-2-2] | – | – | – | AUC(0-t) ([2]; in vivo, oral gavage 10 mg/kg): 6950 ng·h/mL; bioavailability ([2]; in vivo, oral gavage 10 mg/kg vs intravenous 10 mg/kg): 153%
